The source of these data is article PMC9307114, “Discovery and SAR analysis of phenylbenzo[d][1,3]dioxole-based proprotein convertase subtilisin/kexin type 9 inhibitors” (Journal of Enzyme Inhibition and Medicinal Chemistry, 2022).

One experiment addresses PCSK9/LDLR PPI (Homo sapiens, UniProt Q8NBP7). Nature of the experiment: PCSK9-LDLR TR-FRET assay (PCSK9/LDLR PPI inhibitory screening). It counts as binding. The note with it: for inhibition at 10 µM: mean of three experiments, read-out: PCSK9 percentage inhibitory rate; for IC50: dose-dependent IC50 plot, Figure 3, read-out: PCSK9 IC50 (inhibition of PCSK9/LDLR PPI). As to the method:
The PCSK9/LDLR time-resolved fluorescence resonance energy transfer (TR-FRET) assay was performed to evaluate the activity of synthesised compounds in inhibition of PCSK9-LDLR binding. The A series compounds were firstly synthesised for the PCSK9/LDLR PPI inhibitory test. […] Therefore, a group of A12 derivatives (B series) were synthesised with 4-chlorobenzyl substituted in the amino group and various substitutions introduced to the carboxylic group. […] To confirm whether the 4-chloromethyl group is essential for the PPI inhibitory activity, a new series of compounds (C series) were synthesised with the 4-chloromethyl group replaced by 4-methoxymethyl moiety. The inhibitory activity was observed, most likely resulting from the 4-methoxymethyl substitution (Table 3).
The compounds were dissolved in 100% DMSO; then 2 µL of the dilution was added to a 20 µL of reaction to keep […] in all of reactions. The binding reaction was conducted at room temperature. The reaction mixture in assay buffer contains PCSK9, the indicated amount of the inhibitor, ligand LDLR, and the reaction dyes. The reaction mixture was incubated for 120 min before detection of the TR-FRET signal. Fluorescence signals for both the donor and acceptor dyes were measured using a Tecan Infinite M1000 plate reader. TR-FRET was recorded as the ratio of the fluorescence of the acceptor and the donor dyes (acceptor/donor). The TR-FRET data were analysed using Graphpad Prism software.

A further experiment relates to HepG2 cells. The experiment can be described thus: MTT assay on HepG2 cells. It counts as cell-based. Conditions: Homo sapiens, mean of three experiments, read-out: HepG2 percentage inhibitory rate. For orientation: Tetrazolium dyes change colour on reduction, which living cells bring about.
In experiment [1] the test system is LDLR level on the surface of HepG2 cells. The experiment can be described thus: LDLR expression assay, In-Cell Western (ICW), in the presence of PCSK9. The note with it: for effect on LDLR protein level (in words): HepG2 cells in the presence of PCSK9, compared with positive control SBC-115337; for proportion of LDLR: PCSK9 alone 34.33%. The format is cell-based, human. As to the method:
LDLR is degraded in lysosomes by binding to PCSK9. Thus, inhibition of PCSK9/LDLR PPI could increase the LDLR level on the surface of hepatocytes. In the current study, human hepatic HepG2 cells were selected for the investigation of the active compounds for LDLR expression. SBC-115337, developed by Shifa Biomedical Corporation, as a potent PCSK9/LDLR PPI inhibitor was utilised as the positive control. All the synthesised compounds were evaluated to be safe with low inhibitory ratios at the dose of 10 µM in the MTT assay (Tables 1–3). Then, in cell western (ICW) assay was performed to detect the LDLR level on the surface of HepG2 cells.
The HepG2 cell line was grown in a humidified incubator with 5% CO2 at 37 °C and cultured in DMEM-High glucose medium with 10% (v/v) heat-inactivation foetal bovine serum, 2 mM L-glutamine and 100 U/ml penicillin-streptomycin. The expression level of LDLR in HepG2 cells was determined by In-Cell Western (ICW) Assay as described previously. Briefly, cells were plated in a 96-well plate (2 × 10^4 cells per well) and cultured for more than 24 h, followed by washing with PBS and starving overnight in DMEM without FBS. HepG2 cells were treated with 4.0 μg/ml PCSK9 (K9) alone and the tested compounds with the presence of 4.0 μg/ml of K9, and vehicle (PBS) for 8 h. Then cells were washed with PBS one time and fixed in 4% paraformaldehyde for 20 min. Cells were washed 5 times with PBS, then were blocked with 5% BSA in PBS for 1 h. LDLR monoclonal Antibody solution (1:1000 in 5% BSA in PBS, 50.0 μL/well) was incubated overnight at 4 °C. Subsequently, the cells were washed 5 times with PBS. Goat anti-mouse IgG-HRP secondary antibody solution (1:2000 in 5% BSA in PBS, 50.0 μL/well) was added and incubated 1 h at RT. Then cells were washed 5 times with PBS and added with TMB substrate, then incubated at RT until desired colour was developed. 50.0 μL/well of 2 M H2SO4 were added to stop the reaction and the absorbance at 450 nm was measured using a plate reader (EnSpire, Perkin Elmer Corporation).

Experiment [2] concerns LDL uptake of HepG2 cells. The experiment can be described thus: Fluorescent LDL uptake assay in the presence of PCSK9. It counts as cell-based, human. The note with it: PCSK9 treatment group 29.82%. The protocol: Extracellular LDL uptake assay was performed to evaluate the functional effects of PCSK9/LDLR PPI inhibition. The effects of active compounds in improving the capacity of HepG2 cells to uptake the fluorescent LDL were investigated using SBC-115337 as the positive control. […] The tested compound A12, B1, B3, B4 and B14 strengthened the ability of HepG2 cells to absorb LDL from 29.82% of the PCSK9 treatment group up to 32.78%, 33.29%, 39.58%, 36.24% and 42.41% at the doses of 5 µM, and 44.80%, 47.15%, 50.67%, 49.94 and 64.27% at the doses of 10 µM, respectively.
HepG2 cells (2 × 10^4 cells per well) were seeded in black 96-well plates and cultured for more than 24 h. The following day, cells were treated with 4.0 μg/ml K9 alone and the tested compounds with the presence of 4.0 μg/ml of K9, and vehicle (PBS) for 8 h. At the end of the treatments, the culture medium was replaced with 50.0 μl/well LDL-DyLight™ 550 working solution (Cayman Chemical Company, US). The cells were additionally incubated for 16 h at 37 °C. Then the cells were washed with PBS one time, then added PBS with 100.0 μl/well. The degree of LDL uptake was measured using a plate reader (EnSpire, Perkin Elmer Corporation) at excitation wavelengths 540 nm and emission wavelengths 570 nm.

[3] abbreviates: 5 µM compound with 4.0 μg/ml PCSK9.
Where [4] appears, read: 10 µM compound with 4.0 μg/ml PCSK9.

Chain of PCSK9/LDLR PPI (Q8NBP7 153-692): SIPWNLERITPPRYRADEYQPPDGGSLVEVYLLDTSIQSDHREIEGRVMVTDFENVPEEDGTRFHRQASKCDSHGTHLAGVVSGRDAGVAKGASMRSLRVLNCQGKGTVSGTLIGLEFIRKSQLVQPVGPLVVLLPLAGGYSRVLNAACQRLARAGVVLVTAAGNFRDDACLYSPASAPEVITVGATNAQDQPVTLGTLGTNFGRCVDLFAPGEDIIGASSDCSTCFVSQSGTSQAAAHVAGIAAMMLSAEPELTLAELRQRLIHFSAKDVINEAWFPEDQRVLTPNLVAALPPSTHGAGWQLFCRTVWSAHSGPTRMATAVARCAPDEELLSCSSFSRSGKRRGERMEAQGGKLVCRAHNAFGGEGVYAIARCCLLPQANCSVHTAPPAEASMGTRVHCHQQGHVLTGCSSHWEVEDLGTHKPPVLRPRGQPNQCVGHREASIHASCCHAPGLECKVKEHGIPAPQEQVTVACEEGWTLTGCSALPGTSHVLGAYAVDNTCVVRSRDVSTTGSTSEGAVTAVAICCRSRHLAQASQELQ
Chain of PCSK9/LDLR PPI (Q8NBP7 31-152 partner limits assumed): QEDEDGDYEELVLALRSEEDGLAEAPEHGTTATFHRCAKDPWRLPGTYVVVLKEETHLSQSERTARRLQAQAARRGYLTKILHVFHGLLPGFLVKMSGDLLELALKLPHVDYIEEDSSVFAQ

For `COc1cc(NC(=O)c2ccc(-c3cc4c(cc3NC(=O)c3ccc(CCl)cc3)OCO4)cc2)cc(OC)c1OC` [A12, 4-(Chloromethyl)-N-(6-(4-((3,4,5-trimethoxyphenyl)carbamoyl)phenyl)benzo[d][1,3]dioxol-5-yl)benzamide], the figures for the inhibition at 10 µM at PCSK9/LDLR PPI and in the experiment with HepG2 cells were 45.1 ± 0.12% and 7.85 ± 0.25%, respectively. Besides, the IC50 at PCSK9/LDLR PPI was 70.8 µM. The “effect on LDLR protein level (in words)” value in experiment [1] was “restored the LDLR protein level in a dose dependent manner”. For the same compound, the “LDL uptake of HepG2 cells” value in experiment [2] (setting [3]) is 32.78%; in experiment [2] (setting [4]), 44.80%.

`O=C(Nc1ccc(Cl)cc1)c1ccc(-c2cc3c(cc2NC(=O)c2ccc(CCl)cc2)OCO3)cc1` [B1, 4-(Chloromethyl)-N-(6-(4-((4-chlorophenyl)carbamoyl)phenyl)benzo[d][1,3]dioxol-5-yl)benzamide]: the inhibition at 10 µM on PCSK9/LDLR PPI came to 54.3 ± 1.54%; in the experiment on HepG2 cells, 9.97 ± 0.39%. Also, the IC50 on PCSK9/LDLR PPI turned out to be 62.2 µM. In addition, in experiment [1], the “effect on LDLR protein level (in words)” value is given as “restored the LDLR protein level in a dose dependent manner”. Moreover, the “LDL uptake of HepG2 cells” value in experiment [2] (setting [3]) was found to be 33.29%; in experiment [2] (setting [4]) it was 47.15%.

Regarding `COc1ccccc1N1CCN(C(=O)c2ccc(-c3cc4c(cc3NC(=O)c3ccc(CCl)cc3)OCO4)cc2)CC1` [B14, 4-(Chloromethyl)-N-(6-(4-(4-(2-methoxyphenyl)piperazine-1-carbonyl)phenyl)benzo[d][1,3]dioxol-5-yl)benzamide], the inhibition at 10 µM at PCSK9/LDLR PPI stood at 64.6 ± 1.54%; with HepG2 cells it was 5.71 ± 0.54%. Also, the IC50 at PCSK9/LDLR PPI turned out to be 16.4 µM. The “proportion of LDLR” value in experiment [1] (5 µM compound with 4.0 μg/ml PCSK9, 8 h) amounted to 50.55%; in experiment [1] (10 µM compound with 4.0 μg/ml PCSK9, 8 h) it was 66.51%. In addition, in experiment [1], the “effect on LDLR protein level (in words)” value is reported as “restored the LDLR protein level in a dose dependent manner”. Besides, the “LDL uptake of HepG2 cells” value in experiment [2] (setting [3]) stood at 42.41%; in experiment [2] (setting [4]) it was 64.27%.

For the compound `O=C(Nc1ccc(O)cc1)c1ccc(-c2cc3c(cc2NC(=O)c2ccc(CCl)cc2)OCO3)cc1` [B4, 4-(Chloromethyl)-N-(6-(4-((4-hydroxyphenyl)carbamoyl)phenyl)benzo[d][1,3]dioxol-5-yl)benzamide], the figures for the inhibition at 10 µM at PCSK9/LDLR PPI and in the experiment on HepG2 cells were 45.2 ± 2.85% and 5.42 ± 0.38%, respectively. The IC50 on PCSK9/LDLR PPI was 24.6 µM. Also, the “effect on LDLR protein level (in words)” value in experiment [1] was “restored the LDLR protein level in a dose dependent manner”. Also, the “LDL uptake of HepG2 cells” value is reported as 36.24% in experiment [2] (setting [3]) and 49.94% in experiment [2] (setting [4]).

On to `O=C(Nc1ccc(F)cc1)c1ccc(-c2cc3c(cc2NC(=O)c2ccc(CCl)cc2)OCO3)cc1` [B3, 4-(Chloromethyl)-N-(6-(4-((4-fluorophenyl)carbamoyl)phenyl)benzo[d][1,3]dioxol-5-yl)benzamide], for which the figures for the inhibition at 10 µM at PCSK9/LDLR PPI and in the experiment with HepG2 cells were 46.3 ± 2.77% and 8.09 ± 0.76%, respectively. In addition, the IC50 on PCSK9/LDLR PPI stood at 23.4 µM. The “effect on LDLR protein level (in words)” value in experiment [1] is on record as “restored the LDLR protein level in a dose dependent manner”. The “LDL uptake of HepG2 cells” value in experiment [2] (setting [3]) worked out at 39.58%; in experiment [2] (setting [4]), 50.67%.
